Reference: US20190309272A1, “Genetically Modified Cell Lines Including a TP53 Modification and Methods of Use” (UNIVERSITY OF SOUTH CAROLINA, priority 2018, published 2019)
Read-outs that look alike come from different tables or passages of the source.

Legend:
Assay type in all cases: cell-based, Human
[1] = test system: MCF7 TP53 KO 5.6 pool; test: Drug screening, resazurin, TP53 KO 5.6 pool
[2] = test system: MCF7 TP53 KO 3.4 pool; test: Drug screening, resazurin, TP53 KO 3.4 pool
[3] = test system: MCF7 WT Parental pool; test: Drug screening, resazurin, MCF7 wild type parental pool
[4] = ten-day drug treatment, 156.25 nM to 10 μM, resazurin fluorescence

| SMILES | TP53 KO 5.6 pool (AUC) [1, 4] | TP53 KO 3.4 pool (AUC) [2, 4] | MCF7 WT Parental pool (AUC) [3, 4] | TP53 KO 5.6 pool (AUC) [1] | TP53 KO 3.4 pool (AUC) [2] | MCF7 WT Parental pool (AUC) [3] |
| --- | --- | --- | --- | --- | --- | --- |
| O=C(CCBr)N1CCN(C(=O)CCBr)CC1 [Pipobroman] | 7.66 | 8.997 | 8.767 |  |  |  |
| CC(=O)O[C@@]12CO[C@@H]1C[C@H](O)[C@@]1(C)C(=O)[C@H](O)C3=C(C)[C@@H](OC(=O)[C@H](O)[C@@H](NC(=O)OC(C)(C)C)c4ccccc4)C[C@@](O)([C@@H](OC(=O)c4ccccc4)[C@H]21)C3(C)C [Docetaxel] | 1.663 | 1.639 | 1.432 |  |  |  |
| CCCCCOC(=O)Nc1nc(=O)n([C@@H]2O[C@H](C)[C@@H](O)[C@H]2O)cc1F [Capecitabine] | 9.284 | 9.208 | 9.004 |  |  |  |
| Cc1cn(-c2cc(NC(=O)c3ccc(C)c(Nc4nccc(-c5cccnc5)n4)c3)cc(C(F)(F)F)c2)cn1 [Nilotinib] | 4.891 | 6.967 | 5.834 |  |  |  |
| CO[C@H]1C[C@@H]2CC[C@@H](C)[C@@](O)(O2)C(=O)C(=O)N2CCCC[C@H]2C(=O)O[C@H]([C@H](C)C[C@@H]2CC[C@@H](O)[C@H](OC)C2)CC(=O)[C@H](C)/C=C(\C)[C@@H](O)[C@@H](OC)C(=O)[C@H](C)C[C@H](C)/C=C/C=C/C=C/1C [Sirolimus] | 3.106 | 2.623 | 2.534 |  |  |  |
| C[C@@H](Oc1cc(-c2cnn(C3CCNCC3)c2)cnc1N)c1c(Cl)ccc(F)c1Cl [Crizotinib] | 2.941 | 2.325 | 2.549 |  |  |  |
| O=C(c1cc(Cc2n[nH]c(=O)c3ccccc23)ccc1F)N1CCN(C(=O)C2CC2)CC1 [Olaparib] | 7.433 | 8.58 | 5.48 |  |  |  |
| CO[C@H]1C(=O)[C@]2(C)[C@@H](OC)C[C@H]3OC[C@@]3(OC(C)=O)[C@H]2[C@H](OC(=O)c2ccccc2)[C@]2(O)C[C@H](OC(=O)[C@H](O)[C@@H](NC(=O)OC(C)(C)C)c3ccccc3)C(C)=C1C2(C)C [Cabazitaxel] | 1.713 | 1.658 | 1.406 |  |  |  |
| Nc1cccc2c1C(=O)N(C1CCC(=O)NC1=O)C2=O (stereo not drawn) [Pomalidomide] | 10.13 | 9.902 | 10.08 |  |  |  |
| COc1cc2ncnc(Nc3ccc(F)c(Cl)c3)c2cc1OCCCN1CCOCC1 [Gefintinib] | 8.242 | 7.676 | 8.974 |  |  |  |
| CO[C@H]1C[C@@H]2CC[C@@H](C)[C@@](O)(O2)C(=O)C(=O)N2CCCC[C@H]2C(=O)O[C@H]([C@H](C)C[C@@H]2CC[C@@H](OCCO)[C@H](OC)C2)CC(=O)[C@H](C)/C=C(\C)[C@@H](O)[C@@H](OC)C(=O)[C@H](C)C[C@H](C)/C=C/C=C/C=C/1C [Everolimus] | 3.834 | 2.251 | 4.699 |  |  |  |
| Oc1ncc(N(CCCl)CCCl)c(O)n1 [UracilMustard] |  |  |  | 9.516 | 9.337 | 9.331 |
| NCC(=O)CCC(=O)O [Aminolevulinic Acid] | 8.787 | 9.101 | 8.749 |  |  |  |
| S=P(N1CC1)(N1CC1)N1CC1 [Thiotepa] |  |  |  | 5.535 | 5.443 | 3.965 |
| O=C(CCCCCCC(=O)Nc1ccccc1)NO [Vorinostat] | 2.114 | 2.202 | 2.073 |  |  |  |
| O=P1(N(CCCl)CCCl)NCCCO1 (stereo not drawn) [Cyclophosphamide] |  |  |  | 16.92 | 15.2 | 16.16 |
| CN(C)c1nc(N(C)C)nc(N(C)C)n1 [Altretamine] | 8.473 | 8.874 | 8.059 |  |  |  |
| Nc1nc(Cl)nc2c1ncn2[C@@H]1O[C@H](CO)[C@@H](O)[C@@H]1F [Clofarabine] | 3.74 | 3.085 | 5.232 |  |  |  |
| Cc1c(C(=O)Nc2ccc(N3C[C@@H](C)O[C@@H](C)C3)nc2)cccc1-c1ccc(OC(F)(F)F)cc1 [Erismodgib] | 7.491 | 6.922 | 7.435 |  |  |  |
| O=C(/C=C/c1cccc(S(=O)(=O)Nc2ccccc2)c1)NO [Belinostat] | 1.322 | 1.525 | 1.423 |  |  |  |
| Nc1nc(Cl)nc2c1ncn2[C@H]1C[C@H](O)[C@@H](CO)O1 [Cladribine] | 3.956 | 3.767 | 5.569 |  |  |  |
| COc1cc2nccc(Oc3ccc(NC(=O)C4(C(=O)Nc5ccc(F)cc5)CC4)cc3)c2cc1OC [Cabozantinib] | 4.52 | 4.376 | 4.126 |  |  |  |
| CC(C)(C#N)c1cc(Cn2cncn2)cc(C(C)(C)C#N)c1 [Anastrozole] | 8.828 | 8.067 | 8.01 |  |  |  |
